Data: patent publication US5880147A, “Amide derivatives having ACAT inhibitory activity, their preparation and their therapeutic and prohylactic use” (Sankyo Company, Limited, priority 1995, dated 1999)

target: T1, ACAT (acyl-CoA: cholesterol acyl transferase) (Mus musculus, UniProt Q61263); test: Inhibition of ACAT in M.phi. (mouse peritoneal macrophages); assay type: cell-based, mouse (female DDY mice); details: β-VLDL 50 μg cholesterol/ml, [14C]oleate-albumin, 37° C., 3 hours
T1 construct: endogenous in cells; host or cells: primary adherent peritoneal macrophages from unstimulated female DDY mice
T1 sequence (Q61263 1-540): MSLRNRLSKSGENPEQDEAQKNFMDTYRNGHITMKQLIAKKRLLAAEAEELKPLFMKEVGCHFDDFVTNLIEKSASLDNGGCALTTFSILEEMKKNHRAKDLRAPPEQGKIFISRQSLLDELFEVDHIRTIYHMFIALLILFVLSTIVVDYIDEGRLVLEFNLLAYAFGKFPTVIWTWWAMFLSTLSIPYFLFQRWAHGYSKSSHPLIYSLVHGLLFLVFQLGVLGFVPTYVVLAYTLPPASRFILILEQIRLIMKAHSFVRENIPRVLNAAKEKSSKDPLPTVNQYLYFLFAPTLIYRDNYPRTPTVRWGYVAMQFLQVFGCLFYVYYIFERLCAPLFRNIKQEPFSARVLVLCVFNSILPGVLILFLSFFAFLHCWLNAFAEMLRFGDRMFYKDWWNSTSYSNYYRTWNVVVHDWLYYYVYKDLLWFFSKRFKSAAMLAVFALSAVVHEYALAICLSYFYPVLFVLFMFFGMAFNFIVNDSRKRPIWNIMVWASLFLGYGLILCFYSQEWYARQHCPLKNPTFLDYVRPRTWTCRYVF
Procedure: Blood was obtained [using the anticoagulant ethylene diamine tetraacetic acid (5 mM)] from Japanese White rabbits which had been fed a 2% w/w cholesterol diet for 2 weeks and then fasted overnight prior to removing the blood. β-VLDL (d<1.006 g/ml) was isolated by ultracentrifugation from the plasma according to the method of Hatch and Lees [Hatch, F T. and Lees, R S.,Adv. Lipid Res., 6 1-68 (1968)] and dialyzed at 4° C. against 10 mM of a sodium phosphate buffer (pH 7.4) containing 150 mM sodium chloride.
Peritoneal cells were harvested from unstimulated female DDY mice (body weight 20-30 g) in phosphate buffer saline (PBS) as described by Edelson and Cohn [Edelson, P J. and Cohn, Z A.,1976, "In Vitro Methods in Cell-Mediated and Tumor Immunity", editors Bloon, B R and David, J R., (Academic Press, New York), 330-340.]. The fluid from the mice was pooled and the cells were collected by centrifugation at 400×g for 10 minutes at 4° C., and washed once with PBS. The cells were resuspended in Dulbecco's modified Eagle's medium (DMEM) containing 10% (vol/vol) fetal calf serum (FCS), penicillin (100 units/ml), and streptomycin (100 μg/ml) at a final concentration of 3×10^6 cells per ml. Aliquots (1 ml) of this cell suspension were dispersed onto plastic petri dishes (35×10 mm) and then incubated in a CO2 incubator (5% CO2 /95% air) at 37° C. for 2 hours. Each dish was washed twice with PBS without serum to remove nonadherent cells.
Inhibition of ACAT in M.phi. was determined according to the method described by Brown et al. Brown, M S., Goldstein J L., Krieger, M., Ho, Y K. and Anderson, R G W. (1979) J. Cell Biol., 82, 597-613.]. Cholesterol reacylation was initiated by adding β-VLDL (final concentration 50 μg cholesterol/ml), [^14 C]oleate-albumin complex (final concentrations: 0.2 mM oleate and 0.6 mg/ml albumin) and a test compound dissolved in ethanol into the M.phi. monolayer, and the preparation was incubated at 37° C. for 3 hours in a CO2 incubator. Cells were washed three times with PBS and cellular lipid was extracted with 1 ml hexane/isopropanol (3:2 vol/vol). A lipid extract was evaporated to dryness in a stream of nitrogen. Cholesterol [^14 C]oleated was seperated by thin layer chromatography through silica gel using an 85:15:1 by volume mixture of hexane, diethyl ether and acetic acid as developing solvents. The ACAT activity in M.phi. was determined by measuring the radioactivity and an inhibition rate (%) was calculated by comparing a control activity with those of the test compound at given concentrations. The results are shown in the following Table, in which the compounds of the present invention are identified by the number of the Example given hereafter in which they are prepared.

Structure (SMILES) | IC50 [nM]
CCCCCC(CC(=O)Nc1cc(C(=O)NC)ccc1C(C)(C)C)c1ccc(OC)cc1OC (stereo not drawn) [Example 1, N-(2-t-Butyl-5-N'-methylcarbamoylphenyl)-3-(2,4-dimethoxphenyl)octanamide] | 59.7
CCCCCC(CC(=O)Nc1cc(C(N)=O)ccc1C(C)(C)C)c1ccc(OC)cc1OC (stereo not drawn) [Example 2, N-(2-t-Butyl-5-carbamoylphenyl)-3-(2,4-dimethoxyphenyl)octanamide] | 41.8
CCCCCC(CC(=O)Nc1cc(CC(=O)NC)ccc1C(C)(C)C)c1ccc(OC)cc1OC (stereo not drawn) [Example 3] | 31.1
CCCCCC(CC(=O)Nc1cc(CC(N)=O)ccc1C(C)(C)C)c1ccc(OC)cc1OC (stereo not drawn) [Example 4, N-[2-t-Butyl-5-(carbamoylmethyl)phenyl]-3-(2,4-dimethoxyphenyl)octanamide] | 5.97
CCCCCC(CC(=O)Nc1cc(COC(N)=O)ccc1C(C)(C)C)c1ccc(OC)cc1OC (stereo not drawn) [Example 5, N-[2-t-Bu=l-5-(carbamoyloxymethyl)phenyl]-3-(2,4-dimethoxyphenyl)octanamide] | 68.1
CCCCCC(CC(=O)Nc1cc(CNS(=O)(=O)CC)ccc1C(C)(C)C)c1ccc(OC)cc1OC (stereo not drawn) [Example 11, N-[2-t-Butyl-5-(ethylsulfonylaminomethyl)phenyl]-3-(2,4-dimethoxyphenyl)octanamide] | 9.76
CCCCCC(CC(=O)Nc1cc(CC#N)ccc1C(C)(C)C)c1ccc(OC)cc1OC (stereo not drawn) [Example 19, N-(2-t-Butyl-5-cyanomethylphenyl)-3-(2,4-dimethoxyphenyl)octanamide] | 28.8
CCCCCC(CC(=O)Nc1cc(CNC(=O)N(C)C)ccc1C(C)(C)C)c1ccc(OC)cc1OC (stereo not drawn) [Example 23, N-[2-t-Butyl-5-(N',N'-dimethylaminocarbonylaminomethyl)phenyl]-3-(2,4-dimethoxyphenyl)octanamide] | 10.6
CCCCCC(CC(=O)Nc1cc(C(=O)NC)ccc1C(C)(C)C)c1cc(C(=O)NC)c(OC)cc1OC (stereo not drawn) [Example 35, N-(2-t-Butyl-5-N'-methylcarbamoylphenyl)-3-(2,4-dimethoxy-5-N"-methylcarbamoylphenyl)octanamide] | 62.8
CCCCCCC(CC(=O)Nc1cc(C(N)=O)ccc1C(C)(C)C)c1ccc(OC)cc1OC (stereo not drawn) [Example 44, N-(2-t-Butyl-5-carbamoylphenyl)-3-(2,4-dimethoxyphenyl)nonanamide] | 23.5
CCCCCC(CC(=O)Nc1cc(C(=O)NC)ccc1C(C)(C)C)c1ccc(OCC(=O)NCCCC)cc1OC (stereo not drawn) [Example 64, N-(2-t-Butyl-5-N'-methylcarbamoylphenyl)-3-(4-N"-butylcarbamoylmethloxy-2-methoxyphenyl)octanamide] | 29.9
CCCCCC(CC(=O)Nc1cc(C(=O)NC(=O)C(C)C)ccc1C(C)(C)C)c1ccc(OC)cc1OC (stereo not drawn) [Example 131, N-[2-t-Butyl-5-(2-methylpropanoyl)aminocarbonylphenyl)-3-(2,4-dimethoxyphenyl]octanamide] | 17.3
CCCCCC(CC(=O)Nc1cc(C(=O)NC(=O)c2cccnc2)ccc1C(C)(C)C)c1ccc(OC)cc1OC (stereo not drawn) [Example 136, N-{2-t-Butyl-5-[(3-pyridyl)carbonlaminocarbonyl]phenyl}-3-(2,4-dimethoxyphenyl)octanamide] | 9.65
CCCCCC(CC(=O)Nc1cc(CN2C(=O)c3ccccc3C2=O)ccc1C(C)(C)C)c1cccc2c1OCCO2 (stereo not drawn) [Example 142, N-[2-t-Butyl-5-(phthalimidomethyl)phenyl]-3-(2,3-ethylenedioxyphenyl)octanamide] | 35.2
CCCCCC(CC(=O)Nc1cc(CNC(=O)c2cccnc2)ccc1C(C)(C)C)c1ccc(OC)cc1OC (stereo not drawn) [Example 158, N-[2-t-Butyl-5-(N'-3-pyridylcarbonylaminomethyl)phenyl]-3-(2,4-dimethoxyphenyl)octanamide] | 18
CCCCCC(CC(=O)Nc1cc(C(=O)Nc2ccccn2)ccc1C(C)(C)C)c1c(OC)cccc1OC (stereo not drawn) [Example 165, N-{2-t-Butyl-5-[N-(2-pyridyl)carbamoyl]phenyl}-3-(2,6-dimethoxyphenyl)octanamide] | 1.37
CCCCCC(CC(=O)Nc1cc(CNC(=O)NC(C)C)ccc1C(C)(C)C)c1cccc2c1OCCO2 (stereo not drawn) [Example 173, N-[2-t-Butyl-5-(N'-isopropylureidomethyl)phenyl]-3-(2,3-ethylenedioxyphenyl)octanamide] | 17.6
CCCCCC(CC(=O)Nc1cc(CCC(=O)NC)ccc1C(C)(C)C)c1cc(OC)c(OC)cc1OC (stereo not drawn) [Example 186, N-[2-t-Butyl-5-(3-methylamino-3-oxopropyl)phenyl]-3-(2,4,5-trimethoxyphenyl)octanamide] | 79.7
